Measured values as given in patent US20210162050A1, “TOPICAL FORMULATIONS BASED ON IONIC SPECIES FOR SKIN TREATMENT” (The Regents of the University of California, priority 2016, published 2021).

What was measured:
[1] = Octanol-water partitioning coefficients of cation paired hyaluronic acid (HA); type: physicochemical; settings: cation paired with HA
Method: 5 mL ddH2O may be mixed overnight at room temperature with 5 mL octanol. A complex containing a macromolecular anion complexed with sodium ions or with cations with alkyl chains is then added to the mixture and again allowed to mix overnight at room temperature in the dark. After overnight incubation, the solution is centrifuged to separate the octanol layer and water layer. The concentration of the macromolecular anion present in each layer is quantified by UV-Vis spectroscopy, or fluorescence spectroscopy, using, for example, a SAFIRE, XFLUOR4, V4.50 microplate reader (Tecan Group Ltd, Morrisville, N.Y.). For detection of siRNA, the fluorescence detection may be performed at an excitation of 485 nm and an emission of 520 nm, and the method may be validated for linearity, accuracy, and precision. Log Po/w may be calculated as the logarithm of the ratio of fluorescence in the octanol layer compared to the water layer.
Cation paired HA was prepared according to methods described in Example 1.

HEKa cells = assay: Biocompatibility in cell culture, MTT Cell Proliferation Assay; type: cell-based, human; settings: equal concentrations, 4 hours; differences not statistically significant (p >0.05)
Method: All cell culture materials were acquired from Life Technologies (Grand Island, N.Y.). Human adult epidermal keratinocytes were cultured in EpiLife Medium supplemented with Human Keratinocyte Growth Supplement, 25 U/mL penicillin, 25 μg/mL streptomycin, and 50 μg/mL neomycin. Cultures were grown at 37° C. with 5% CO2.
Cells were seeded in a 96-well microplate (Corning Inc., Corning, N.Y.) and were allowed to attach and proliferate. Once cells reached ˜80% confluency, the media was removed and FAM-siRNA, robed-FAM-siRNA, or benzyl dimethyl alkyl ammonium chloride salts in media was added. Media alone was used as a control. Cells were incubated with test solution for 4 hours at 37° C. and 5% CO2. After incubation, test solutions were removed, cells were washed with HBSS, and fresh media was added to each well. Cells were allowed to proliferate overnight before being assessed for viability using the MTT Cell Proliferation Assay (ATCC, Manassas, Va.). Viability was determined according to the manufacturer's recommended protocol using a SAFIRE, XFLUOR4, V4.50 microplate reader (Tecan Group Ltd, Morrisville, N.Y.).

[2] = chloride salt; Hansch et al. 1995; cited from earlier work

## C[N+](C)(C)CCO
[1]
  LogPo/w: −3.32

## CCCCCCCCCCCCCC[N+](C)(C)C.[Br-]
[1]
  LogPo/w: 2.14

## CCCCCCCC[N+](C)(C)Cc1ccccc1 [BDOA chloride, benzyl dimethyl octyl ammonium]
HEKa cells
  toxicity of free salts versus robed with siRNAs: more toxic as free salts

## CCCCCCCCCCCCCCCCCC[N+](C)(C)Cc1ccccc1 [BDSA chloride, benzyl dimethyl stearyl ammonium]
HEKa cells
  toxicity of free salts versus robed with siRNAs: more toxic as free salts
[2]
  Log Po/w, Chloride: 3.23^3

## CCCCCCCCCCCCCC[N+](C)(C)Cc1ccccc1 [BDTA chloride, benzyl dimethyl tetradecyl ammonium]
HEKa cells
  toxicity of free salts versus robed with siRNAs: more toxic as free salts
[2]
  Log Po/w, Chloride: 1.81^2
